Measurements taken from US20180036289A1 (Gilead Sciences, Inc., priority 2016, published 2018).

Legend:
Assay in all cases: Cell proliferation assay (ATPlite), drug with vs without cobicistat
Assay type in all cases: cell-based
SW948 = SW948 cell line; 120 hours incubation
Outline: (§1)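 Cells seeded at 200-3200/well in ATCC-recommended medium, grown 24 h, then exposed to 9-point 3.16-fold dilutions (3.16×10^−5 to 3.16×10^−9 M, duplicate, 0.4% DMSO final) for 120 h at 37 °C, 5% CO2. ATPlite luminescence gave %-growth versus untreated; IC50 from 4-parameter logistic fit.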

COLO 205 = COLO 205 cell line; 120 hours incubation
Outline: as §1

A-498 = A-498 cell line; 120 hours incubation
Outline: as §1

PA-1 = PA-1 cell line; 120 hours incubation
Outline: as §1

DLD-1 = DLD-1 cell line; 120 hours incubation
Outline: as §1

A-204 = A-204 cell line; 120 hours incubation
Outline: as §1

SK-N-FI = SK-N-FI cell line; 120 hours incubation
Outline: as §1

U-2 OS = U-2 OS cell line; 120 hours incubation
Outline: as §1

Daoy = Daoy cell line; 120 hours incubation
Outline: as §1

CCRF-CEM = CCRF-CEM cell line; 120 hours incubation
Outline: as §1

FaDu = FaDu cell line; 120 hours incubation
Outline: as §1

SHP-77 = SHP-77 cell line; 120 hours incubation
Outline: as §1

MeWo = MeWo cell line; 120 hours incubation
Outline: as §1

MCF7 = MCF7 cell line; 120 hours incubation
Outline: as §1

A-549 = A-549 cell line; 120 hours incubation
Outline: as §1

AN3 CA = AN3 CA cell line; 120 hours incubation
Outline: as §1

ACHN = ACHN cell line; 120 hours incubation
Outline: as §1

K-562 = K-562 cell line; 120 hours incubation
Outline: as §1

A388 = A388 cell line; 120 hours incubation
Outline: as §1

HCT 116 = HCT 116 cell line; 120 hours incubation
Outline: as §1

BT-20 = BT-20 cell line; 120 hours incubation
Outline: as §1

BT-549 = BT-549 cell line; 120 hours incubation
Outline: as §1

VA-ES-BJ = VA-ES-BJ cell line; 120 hours incubation
Outline: as §1

A-427 = A-427 cell line; 120 hours incubation
Outline: as §1

A375 = A375 cell line; 120 hours incubation
Outline: as §1

NCI-H82 = NCI-H82 cell line; 120 hours incubation
Outline: as §1

U-87 MG = U-87 MG cell line; 120 hours incubation
Outline: as §1

A-172 = A-172 cell line; 120 hours incubation
Outline: as §1

RT4 = RT4 cell line; 120 hours incubation
Outline: as §1

SJCRH30 = SJCRH30 cell line; 120 hours incubation
Outline: as §1

CC(=O)O[C@H]1C(=O)[C@@]2(C)[C@H]([C@H](OC(=O)c3ccccc3)[C@]3(O)C[C@H](OC(=O)[C@H](O)[C@@H](NC(=O)c4ccccc4)c4ccccc4)C(C)=C1C3(C)C)[C@]1(OC(C)=O)CO[C@@H]1C[C@@H]2O [paclitaxel] was tested, and the “Fold change in IC50 (IC50 [Drug + Cobicistat]/IC50 [Drug])” value (from here on “Fold change in IC50”) (SW948) was 2.6 fold, the “Fold change in IC50” value (COLO 205) was 3.0 fold and the “Fold change in IC50” value (A-498) was 2.8 fold. For the same molecule, the “Fold change in IC50” value (PA-1) was 3.9 fold, the “Fold change in IC50” value (DLD-1) was 1.9 fold and the “Fold change in IC50” value (A-204) was 3.6 fold. For the same molecule, the “Fold change in IC50” value (SK-N-FI) was 2.5 fold, the “Fold change in IC50” value (U-2 OS) was 3.2 fold and the “Fold change in IC50” value (Daoy) was 3.4 fold. For the same molecule, the “Fold change in IC50” value (CCRF-CEM) was 2.6 fold, the “Fold change in IC50” value (FaDu) was 1.3 fold and the “Fold change in IC50” value (SHP-77) was 2.3 fold. For the same molecule, the “Fold change in IC50” value (MeWo) was 2.0 fold, the “Fold change in IC50” value (MCF7) was 3.3 fold and the “Fold change in IC50” value (A-549) was 1.0 fold. The “Fold change in IC50” value (AN3 CA) was 2.9 fold, the “Fold change in IC50” value (ACHN) was 2.5 fold and the “Fold change in IC50” value (K-562) was 2.4 fold. The “Fold change in IC50” value (A388) was 2.7 fold, the “Fold change in IC50” value (HCT 116) was 1.0 fold and the “Fold change in IC50” value (BT-20) was 1.5 fold. The “Fold change in IC50” value (BT-549) was 1.2 fold, the “Fold change in IC50” value (VA-ES-BJ) was 2.8 fold and the “Fold change in IC50” value (A-427) was 1.2 fold. For the same molecule, the “Fold change in IC50” value (A375) was 2.3 fold, the “Fold change in IC50” value (NCI-H82) was 2.4 fold and the “Fold change in IC50” value (U-87 MG) was 2.2 fold. The “Fold change in IC50” value (A-172) was 1.7 fold, the “Fold change in IC50” value (RT4) was 3.7 fold and the “Fold change in IC50” value (SJCRH30) was 1.6 fold.

With CC[C@]1(O)C[C@@H]2CN(CCc3c([nH]c4ccccc34)[C@@](C(=O)OC)(c3cc4c(cc3OC)N(C)[C@H]3[C@@](O)(C(=O)OC)[C@H](OC(C)=O)[C@]5(CC)C=CCN6CC[C@]43[C@@H]65)C2)C1 [vinblastine] the “Fold change in IC50” value (SW948) was 4.2 fold, the “Fold change in IC50” value (COLO 205) was 4.9 fold and the “Fold change in IC50” value (A-498) was 3.8 fold. For the same molecule, the “Fold change in IC50” value (PA-1) was 6.3 fold, the “Fold change in IC50” value (DLD-1) was 2.2 fold and the “Fold change in IC50” value (A-204) was 4.0 fold. For the same molecule, the “Fold change in IC50” value (SK-N-FI) was 4.5 fold, the “Fold change in IC50” value (U-2 OS) was 4.4 fold and the “Fold change in IC50” value (Daoy) was 5.7 fold. The “Fold change in IC50” value (CCRF-CEM) was 3.3 fold, the “Fold change in IC50” value (FaDu) was 2.2 fold and the “Fold change in IC50” value (SHP-77) was 2.0 fold. For the same molecule, the “Fold change in IC50” value (MeWo) was 3.2 fold, the “Fold change in IC50” value (MCF7) was 5.3 fold and the “Fold change in IC50” value (A-549) was 2.3 fold. The “Fold change in IC50” value (AN3 CA) was 3.9 fold, the “Fold change in IC50” value (ACHN) was 3.8 fold and the “Fold change in IC50” value (K-562) was 2.6 fold. For the same molecule, the “Fold change in IC50” value (A388) was 4.7 fold, the “Fold change in IC50” value (HCT 116) was 2.0 fold and the “Fold change in IC50” value (BT-20) was 2.7 fold. The “Fold change in IC50” value (BT-549) was 3.3 fold, the “Fold change in IC50” value (VA-ES-BJ) was 4.3 fold and the “Fold change in IC50” value (A-427) was 2.7 fold. For the same molecule, the “Fold change in IC50” value (A375) was 3.4 fold, the “Fold change in IC50” value (NCI-H82) was 3.5 fold and the “Fold change in IC50” value (U-87 MG) was 2.6 fold. For the same molecule, the “Fold change in IC50” value (A-172) was 3.0 fold, the “Fold change in IC50” value (RT4) was 4.9 fold and the “Fold change in IC50” value (SJCRH30) was 3.8 fold.

For CC[C@]1(O)C[C@H]2CN(CCc3c([nH]c4ccccc34)[C@@](C(=O)OC)(c3cc4c(cc3OC)N(C=O)[C@H]3[C@@](O)(C(=O)OC)[C@H](OC(C)=O)[C@]5(CC)C=CCN6CC[C@]43[C@@H]65)C2)C1 [vincristine], the “Fold change in IC50” value (SW948) was 3.5 fold, the “Fold change in IC50” value (COLO 205) was 4.0 fold and the “Fold change in IC50” value (A-498) was 3.2 fold. For the same molecule, the “Fold change in IC50” value (PA-1) was 4.2 fold, the “Fold change in IC50” value (DLD-1) was 2.0 fold and the “Fold change in IC50” value (A-204) was 4.4 fold. The “Fold change in IC50” value (SK-N-FI) was 2.7 fold, the “Fold change in IC50” value (U-2 OS) was 3.5 fold and the “Fold change in IC50” value (Daoy) was 4.6 fold. The “Fold change in IC50” value (CCRF-CEM) was 3.6 fold, the “Fold change in IC50” value (FaDu) was 2.8 fold and the “Fold change in IC50” value (SHP-77) was 2.6 fold. The “Fold change in IC50” value (MeWo) was 2.9 fold, the “Fold change in IC50” value (MCF7) was 4.8 fold and the “Fold change in IC50” value (A-549) was 1.9 fold. The “Fold change in IC50” value (AN3 CA) was 4.7 fold, the “Fold change in IC50” value (ACHN) was 3.4 fold and the “Fold change in IC50” value (K-562) was 3.5 fold. For the same molecule, the “Fold change in IC50” value (A388) was 3.7 fold, the “Fold change in IC50” value (HCT 116) was 1.4 fold and the “Fold change in IC50” value (BT-20) was 3.2 fold. For the same molecule, the “Fold change in IC50” value (BT-549) was 2.9 fold, the “Fold change in IC50” value (VA-ES-BJ) was 5.4 fold and the “Fold change in IC50” value (A-427) was 1.9 fold. For the same molecule, the “Fold change in IC50” value (A375) was 4.4 fold, the “Fold change in IC50” value (NCI-H82) was 3.1 fold and the “Fold change in IC50” value (U-87 MG) was 3.1 fold. The “Fold change in IC50” value (A-172) was 3.3 fold, the “Fold change in IC50” value (RT4) was 4.0 fold and the “Fold change in IC50” value (SJCRH30) was 3.5 fold.
